Literature values, collected in patent US20130064888A1, “PHARMACEUTICAL FORMULATIONS” (priority 2011, published 2013).

Legend:
[1] = at 25° C.; practically insoluble in water
[2] = many organic solvents, including ethanol

5-chloro-N-({(5S)-2-oxo-3-[4-(3-oxo-4-morpholinyl)-phenyl]-1,3-oxaolidin-5-yl}methyl-2-thiophencarboxamide [Rivaroxaban]
water solubility [1]: < 100 mg/L
solubility in organic solvents [2]: low solubility
